# Data published in ChEMBL document CHEMBL5104199, “Design, Synthesis, and Biochemical and Biological Evaluation of Novel 7-Deazapurine Cyclic Dinucleotide Analogues as STING Receptor Agonists” (J Med Chem, 2022).
# Experiments:
# [1] = target: T1, Stimulator of interferon genes protein (Homo sapiens, UniProt Q86WV6); assay: Agonist activity at human wild type STING expressed in 293T cells by digitonin cell based assay; set-up: species or system HEK293T
# [2] = Induction of IFNgamma secretion in human PBMC incubated for 16 hrs
# [3] = Induction of TNFalpha secretion in human PBMC incubated for 16 hrs
# [4] = Induction of IFNalpha secretion in human PBMC incubated for 16 hrs
# [5] = Cytotoxicity against human PBMC cells; assay type: toxicity, cell-based
# [6] = target: T1, Stimulator of interferon genes protein; details: filed as agonist
# Description: Binding affinity to human wild type STING assessed as change in melting temperature by differential scanning fluorimetry (DSF) method
# cells [7] = details: Homo sapiens, HEK-293T
# Description: Agonist activity at human STING HAQ expressed in 293T cells by digitonin cell based assay
# cells [8] = details: Homo sapiens, HEK-293T; remark: listed apart in the source
# Description: Agonist activity at human STING REF expressed in 293T cells by digitonin cell based assay
# cells [9] = details: Homo sapiens, HEK-293T; remark: listed apart in the source
# Description: Agonist activity at human STING AQ expressed in 293T cells by digitonin cell based assay
# cells [10] = details: Homo sapiens, HEK-293T; remark: listed apart in the source
# Description: Agonist activity at human STING Q expressed in 293T cells by digitonin cell based assay
# [11] = target: T1, Stimulator of interferon genes protein; assay: Agonist activity at human wild type full length STING expressed in 293T cells incubated for 7 hrs by luciferase/cell based assay; set-up: species or system HEK-293T
# T1 sequence (Q86WV6 whole entry): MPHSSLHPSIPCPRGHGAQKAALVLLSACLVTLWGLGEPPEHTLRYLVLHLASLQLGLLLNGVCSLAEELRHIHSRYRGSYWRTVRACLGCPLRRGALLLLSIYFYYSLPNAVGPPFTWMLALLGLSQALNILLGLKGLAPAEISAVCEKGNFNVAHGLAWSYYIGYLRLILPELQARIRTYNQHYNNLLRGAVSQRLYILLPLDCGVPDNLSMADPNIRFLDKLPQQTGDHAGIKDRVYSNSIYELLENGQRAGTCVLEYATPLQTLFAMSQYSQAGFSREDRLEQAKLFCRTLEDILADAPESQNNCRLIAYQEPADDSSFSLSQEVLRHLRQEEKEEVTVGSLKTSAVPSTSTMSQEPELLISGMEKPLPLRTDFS
Structure (SMILES),EC50 [1] [nM],EC50 [2] [nM],EC50 [3] [nM],EC50 [4] [nM],ΔTm [6] [°C],EC50 (cells [7]) [nM],EC50 (cells [8]) [nM],EC50 (cells [9]) [nM],EC50 (cells [10]) [nM],EC50 [11] [nM],Activity [5]
Nc1nc2c(ncn2[C@@H]2O[C@@H]3COP(=O)(O)O[C@H]4[C@@H](O)[C@H](n5cnc6c(N)ncnc65)O[C@@H]4COP(=O)(O)O[C@@H]2[C@@H]3O)c(=O)[nH]1,,,,,,,,,,,Non-Toxic
Cc1cn([C@@H]2O[C@@H]3COP(=O)(O)O[C@@H]4[C@H](O)[C@@H](COP(=O)(O)O[C@H]3[C@H]2O)O[C@H]4n2cnc3c(=O)[nH]c(N)nc32)c2ncnc(N)c12,,,,,,,,,,,Non-Toxic
Nc1nc2c(ncn2[C@@H]2O[C@@H]3COP(=O)(O)O[C@H]4[C@@H](O)[C@H](n5cc(-c6cc7ccccc7s6)c6c(N)ncnc65)O[C@@H]4COP(=O)(O)O[C@@H]2[C@@H]3O)c(=O)[nH]1,35,870,1430,4040,13.5,195,350,330,250,,Non-Toxic
Nc1nc2c(c(-c3ccccc3)cn2[C@@H]2O[C@@H]3COP(=O)(O)O[C@H]4[C@@H](O)[C@H](n5cc(-c6ccccc6)c6c(N)ncnc65)O[C@@H]4COP(=O)(O)O[C@@H]2[C@@H]3O)c(=O)[nH]1,6410,,,,1,9420,19500,10300,271,> 150000,
Nc1nc2c(ncn2[C@@H]2O[C@@H]3COP(=O)(O)O[C@H]4[C@@H](O)[C@H](n5cc(-c6ccco6)c6c(N)ncnc65)O[C@@H]4COP(=O)(O)O[C@@H]2[C@@H]3O)c(=O)[nH]1,,,,,,,,,,,Non-Toxic
Nc1nc2c(ncn2[C@@H]2O[C@@H]3COP(=O)(O)O[C@H]4[C@@H](O)[C@H](n5cc(-c6cc7ccccc7c7ccccc67)c6c(N)ncnc65)O[C@@H]4COP(=O)(O)O[C@@H]2[C@@H]3O)c(=O)[nH]1,61,,> 200000,> 200000,4.4,900,> 45000,1400,> 45000,,Non-Toxic
Nc1nc2c(ncn2[C@@H]2O[C@@H]3COP(=O)(O)O[C@H]4[C@@H](O)[C@H](n5cc(-c6ccccc6)c6c(N)ncnc65)O[C@@H]4COP(=O)(O)O[C@@H]2[C@@H]3O)c(=O)[nH]1,63,,52400,,8.1,385,5900,307,1700,,Non-Toxic
Nc1nc2c(ncn2[C@@H]2O[C@@H]3COP(=O)(O)O[C@H]4[C@@H](O)[C@H](n5cc(-c6cccs6)c6c(N)ncnc65)O[C@@H]4COP(=O)(O)O[C@@H]2[C@@H]3O)c(=O)[nH]1,,,,,,,,,,,Non-Toxic
Nc1nc2c(ncn2[C@@H]2O[C@@H]3COP(=O)(O)O[C@H]4[C@@H](O)[C@H](n5cc(C6CC6)c6c(N)ncnc65)O[C@@H]4COP(=O)(O)O[C@@H]2[C@@H]3O)c(=O)[nH]1,,,,,,,,,,,Non-Toxic

# More lines, main results first:
EC50 [1] [nM],EC50 [2] [nM],EC50 [3] [nM],EC50 [4] [nM],ΔTm [6] [°C],EC50 (cells [7]) [nM],EC50 (cells [8]) [nM],EC50 (cells [9]) [nM],EC50 (cells [10]) [nM],EC50 [11] [nM],Structure (SMILES),Activity [5]
76,8330,24600,12800,12.1,60,334,85,176,,Nc1nc2c(ncn2[C@@H]2O[C@@H]3COP(=O)(O)O[C@H]4[C@@H](O)[C@H](n5cc(-c6cc7ccccc7o6)c6c(N)ncnc65)O[C@@H]4COP(=O)(O)O[C@@H]2[C@@H]3O)c(=O)[nH]1,Non-Toxic
32,1770,53900,5090,13,132,1000,160,950,,Nc1nc2c(ncn2[C@@H]2O[C@@H]3COP(=O)(O)O[C@H]4[C@@H](O)[C@H](n5cc(-c6ccc(-c7ccc8ccccc8c7)cc6)c6c(N)ncnc65)O[C@@H]4COP(=O)(O)O[C@@H]2[C@@H]3O)c(=O)[nH]1,Non-Toxic
367,,99700,,7.1,503,8970,869,7070,,Nc1nc2c(ncn2[C@@H]2O[C@@H]3COP(=O)(O)O[C@H]4[C@@H](O)[C@H](n5cc(-c6cccc7c6oc6ccccc67)c6c(N)ncnc65)O[C@@H]4COP(=O)(O)O[C@@H]2[C@@H]3O)c(=O)[nH]1,Non-Toxic
1160,85200,> 200000,74700,2.5,1630,> 45000,1530,35800,> 150000,Nc1nc2c(ncn2[C@@H]2O[C@@H]3COP(=O)(O)O[C@H]4[C@@H](O)[C@H](n5cc(-c6ccc7c8c(cccc68)CC7)c6c(N)ncnc65)O[C@@H]4COP(=O)(O)O[C@@H]2[C@@H]3O)c(=O)[nH]1,Non-Toxic
> 45000,,,,-0.6,> 45000,> 45000,> 45000,> 45000,> 150000,Nc1ncnc2c1c(-c1ccccc1)cn2[C@@H]1O[C@@H]2COP(=O)(O)O[C@@H]3[C@H](O)[C@@H](COP(=O)(O)O[C@H]2[C@H]1O)O[C@H]3n1cc(-c2ccccc2)c2c(N)ncnc21,
13,2050,13600,7430,12.3,173,346,92,235,,Nc1nc2c(ncn2[C@@H]2O[C@@H]3COP(=O)(O)O[C@H]4[C@@H](O)[C@H](n5cc(-c6ccc(-c7ccccc7)cc6)c6c(N)ncnc65)O[C@@H]4COP(=O)(O)O[C@@H]2[C@@H]3O)c(=O)[nH]1,Non-Toxic
,17200,18700,7650,,,,,,,Nc1nc2c(ncn2[C@@H]2O[C@@H]3COP(=O)(O)O[C@H]4[C@@H](O)[C@H](n5cnc6c(N)ncnc65)O[C@@H]4COP(=O)(O)O[C@H]3[C@H]2O)c(=O)[nH]1,Non-Toxic
48,,98800,,14.4,695,1400,550,700,,Nc1nc2c(ncn2[C@@H]2O[C@@H]3COP(=O)(O)O[C@H]4[C@@H](O)[C@H](n5cc(-c6ccc7ccccc7c6)c6c(N)ncnc65)O[C@@H]4COP(=O)(O)O[C@@H]2[C@@H]3O)c(=O)[nH]1,Non-Toxic
260,11800,44500,7210,2.5,189,59500,173,7090,> 150000,Nc1nc2c(ncn2[C@@H]2O[C@@H]3COP(=O)(O)O[C@@H]4[C@H](O)[C@@H](COP(=O)(O)O[C@@H]2[C@@H]3O)O[C@H]4n2cnc3c(N)ncnc32)c(=O)[nH]1,Non-Toxic
110,12600,65800,6920,5.1,367,10400,280,4480,> 150000,Nc1nc2c(ncn2[C@@H]2O[C@@H]3COP(=O)(O)O[C@H]4[C@@H](O)[C@H](n5cc(-c6ccccc6)c6c(N)ncnc65)O[C@@H]4COP(=O)(O)O[C@H]3[C@H]2O)c(=O)[nH]1,Non-Toxic
1100,,> 200000,,4.4,497,18900,470,7230,,Nc1nc2c(ncn2[C@@H]2O[C@@H]3COP(=O)(O)O[C@H]4[C@@H](O)[C@H](n5cc(-c6cccc7ccccc67)c6c(N)ncnc65)O[C@@H]4COP(=O)(O)O[C@@H]2[C@@H]3O)c(=O)[nH]1,Non-Toxic
